Measurements reported in patent publication US9546144B2, “Bifunctional compounds” (University of Pittsburgh—of the Commonwealth System of …, priority 2011, dated 2017).

How the values were obtained:
[1] = tested on: 32D cl 3 cells; assay: irradiated 32D cl 3 cells, cell number and viability; type: cell-based; settings: 10 μM, 0-7 Gy, Day 3 or 5 after irradiation
Procedure: FIG. 10. The data are from a screening experiment where 32D cl 3 cells were irradiated to doses of 0, 1, 3, 5, or 7 Gy and placed in T25 flasks. Either JP4-039 or MM350 were added at 10 μM and incubated in a CO2 incubator at 37° C. At Day 3 or 5 after irradiation, the cells were counted and the viability determined.

[2] = tested on: Brine shrimp; assay: brine shrimp toxicity assay; type: in vivo; settings: concentrations up to 20 mg/mL
Procedure: General procedure for brine shrimp toxicity assays. Sample preparation. Stock solutions of 3 were prepared by dissolving 3 (50.0 mg) in 5.0 HPLC grade water (5.0 mL), (solution A) and 3 (2.50 g) in HPLC grade water (10.0 mL) (solution B). Stock solutions of DMSO were prepared by diluting DMSO (45 μL) with HPLC grade water (5.0 mL) (solution C) and DMSO (2.27 mL) with HPLC grade water (10.0 mL) (solution D).
In each case, 5 replicates were performed. Each replicate was performed in a 2 dram vial marked at the 4 and 5 mL volume points. To each vial was added artificial sea water (3 mL) followed by the appropriate volume of stock solution. For set 1 (1.0 mg/mL), solution A (0.500 mL) or solution C (0.500 mL) was added. For set 2 (5.0 mg/mL), solution B (0.100 mL) or solution D (0.100 mL) was added to each vial. For set 3 (20.0 mg/mL), solution B (0.400 mL) or solution D (0.400 mL) was added to each vial. For set 4 (50.0 mg/mL), solution B (1.00 mL) or solution D (1.00 mL) was added to each vial. […]
Brine shrimp eggs (San Francisco Bay Brand) were hatched in a commercial salt mixture (Instant Ocean). […] The shrimp were counted at t=24 h. Another drop of freshly prepared yeast solution (6 mg in 10 mL sea water) was added, the vials were maintained under illumination, and shrimp were counted at t=48 h. […]

## CC1(C[S+]([O-])CC2(C)COC2)COC1 [compound 3, 3,3′-Sulfinylbis(methylene)bis(3-methyloxetane)]
[1]
  number of cells and viability after irradiation: comparable to JP4-039
[2]
  mortality after 48 h: < 10%
